These results are taken from ChEMBL document CHEMBL1129488, “Controlled modification of acidity in cholecystokinin B receptor antagonists: N-(1,4-benzodiazepin-3-yl)-N'-[3-(tetrazol-5-ylamino) phenyl]ureas” (J Med Chem, 1996).

Series [1] can be described thus: physchem.
Description: pKa value is evaluated by nonlinear regression analysis of pH-dependent partition measurements.
The nature of series [2]: physchem. The following applies: buffer, pH 7.4.
Description: Lipophilicity was measured at pH 7.4
For series [3] the following is noted: buffer, pH 0.
Description: The solubility is evaluated at a pH 0f 7.4
Series [4] can be described thus: pKa value for the compound is determined by potentiometric titration. The series is classed as physicochemical.
For series [5], the target named is T1, Cholecystokinin receptor type A (Rattus norvegicus, UniProt P30551).
T1 sequence (P30551 whole entry): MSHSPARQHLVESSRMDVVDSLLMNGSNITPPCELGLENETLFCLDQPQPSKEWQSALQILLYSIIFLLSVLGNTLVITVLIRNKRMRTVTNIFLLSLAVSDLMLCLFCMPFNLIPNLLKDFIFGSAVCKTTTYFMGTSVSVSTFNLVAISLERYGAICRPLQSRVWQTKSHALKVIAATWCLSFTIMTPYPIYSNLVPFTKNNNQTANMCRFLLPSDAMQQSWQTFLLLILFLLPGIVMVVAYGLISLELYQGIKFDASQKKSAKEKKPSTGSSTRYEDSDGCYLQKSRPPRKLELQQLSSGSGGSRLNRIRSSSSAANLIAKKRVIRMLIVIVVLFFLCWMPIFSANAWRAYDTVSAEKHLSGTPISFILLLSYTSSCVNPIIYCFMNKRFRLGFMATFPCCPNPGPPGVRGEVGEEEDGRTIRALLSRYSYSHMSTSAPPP
Description: Inhibition of [125 I]BH CCK-8S binding to Cholecystokinin type A receptor in pancreatic tissue

Series [6] in a line: pKa value is evaluated by nonlinear regression analysis of pH-dependent partition measurements; pKa could not be reliably determined due to poor solubility at low pHs. In kind it is physicochemical.

Turning to `CN1C(=O)[C@H](NC(=O)Nc2ccc3c(c2)N(c2nn[nH]n2)CC3)N=C(c2ccccc2)c2ccccc21`, the pKa in series [1] was 4.8. Besides, the pH-dependent lipophilicity (logD) in series [2] turned out to be 1.38. The S in series [3] stood at 0.87 µg/mL.

`O=[N+]([O-])c1ccc(CNc2nn[nH]n2)cc1`: the pKa in series [4] came to 5.53.

As to `Cc1ccc(NC(=O)N[C@@H]2N=C(C3CCCCC3)c3ccccc3N(C)C2=O)cc1N(C)c1nn[nH]n1`, the IC50 in series [5] stood at 1.6 µM. This molecule also came in with a S in series [3] of 0.49 µg/mL.

`O=[N+]([O-])c1ccc2c(c1)CCN2c1nn[nH]n1` showed a pKa in series [4] of 4.02.

In series [1], `CN1C(=O)[C@H](NC(=O)Nc2cccc(CNc3nn[nH]n3)c2)N=C(c2ccccc2)c2ccccc21` displayed a pKa of 5.9. In series [5], the IC50 came out at 3 µM. The molecule further had a logD in series [2] of 1.47. This molecule also registered a S in series [3] of 0.02 µg/mL.

In the case of `O=[N+]([O-])c1ccc(Nc2nn[nH]n2)cc1`, the pKa in series [4] came out at 4.23.

For the molecule `CN1C(=O)[C@H](NC(=O)Nc2cccc(Nc3nn[nH]n3)c2)N=C(c2ccccc2)c2ccccc21`, in series [1], the pKa worked out at 5.1. For the same molecule, the IC50 in series [5] came out at 3 µM. In addition, the log distribution coefficient (logD) in series [2] was 0.89. Moreover, in series [3], the S was determined as 0.1 µg/mL.

With `Cc1ccc(NC(=O)N[C@@H]2N=C(c3ccccc3)c3ccccc3N(C)C2=O)cc1Nc1nn[nH]n1`, in series [1], the pKa turned out to be 1.37. For the same molecule, 3 µM corresponded to half-maximal inhibition in series [5] (IC50). Further, in series [2], the logD worked out at 1.37. Besides, the S in series [3] is 0.88 µg/mL.

In series [4], `CN(c1ccc([N+](=O)[O-])cc1)c1nn[nH]n1` gave a pKa of 4.46.

Regarding `CN1C(=O)[C@H](NC(=O)Nc2cccc(N(C)c3nn[nH]n3)c2)N=C(C2CCCCC2)c2ccccc21`, the S in series [3] amounted to 60 µg/mL.

Molecule `Cc1ccc(NC(=O)N[C@@H]2N=C(C3CCCCC3)c3ccccc3N(C)C2=O)cc1Nc1nn[nH]n1` returned a S in series [3] of 57 µg/mL.

Consider `CN1C(=O)[C@H](NC(=O)Nc2cccc(CNc3nn[nH]n3)c2)N=C(C2CCCCC2)c2ccccc21`, for which the S in series [3] is 3.7 µg/mL.

Molecule `CN1C(=O)[C@H](NC(=O)Nc2cccc(N(C)c3nn[nH]n3)c2)N=C(c2ccccc2)c2ccccc21` showed an IC50 in series [5] of 3 µM. The same molecule showed a logD in series [2] of 1.14. The molecule further yielded a S in series [3] of 0.16 µg/mL. In addition, in series [6], the pKa result is “Insoluble”.

Take `Cc1cc([N+](=O)[O-])ccc1N(C)c1nn[nH]n1`: the pKa in series [4] amounted to 5.02.

In series [4], `Cc1cc([N+](=O)[O-])ccc1Nc1nn[nH]n1` returned a pKa of 4.46.

Regarding `Cc1cccc(NC(=O)N[C@@H]2N=C(c3ccccc3)c3ccccc3N(C)C2=O)c1` [L-365260], the S in series [3] is less than 0.002 µg/mL.

What is called pKa is the pH at which an ionisable group is half protonated. Read a high pKa as a group that holds its proton tightly. The term logD denotes lipophilicity at a set pH, counting ionised and neutral species. Lower therefore signals lower lipophilicity. A word on the IC50: it is the concentration that inhibits the measured activity by half. A high value points to a need for much substance.
